In patent US20040127446A1 (priority 1992, published 2004):
[invAb] = 3' inverted deoxyabasic cap; [amino-N] = 2'-deoxy-2'-amino nucleotide (N: the base); [I] = hypoxanthine (inosine); m = 2'-O-methyl; r = 2'-OH (RNA)

System: plus strand HCV RNA
Assay type: biochemical, Hepatitis C virus
Conditions: plus strand (+) HCV site, 50 mM Tris-Cl, pH 8.0, 40 mM Mg2+ at 37°, trace substrate, enzymatic nucleic acid concentration of 500 nM or greater

Substance | % Substrate Cleaved in 3 hours [%]
22722 (ACCACCUUGAUGGCAUGCACUAUGCGCGACUCCAC; sugars from the 5' end mmmmmmmmrrrmmmmmrmmmmmmmmmrmmmmmmmm, [invAb] at 3' end, backbone not given here) [compound 22722] | 75.84
22943 (GCUGAGACUGAUGAGGCCGUUAGGCCGAAACGAGGA; 2'-O-methyl at 1, 2, 3, 4, 5, 6, 7, 15, 16, 17, 18, 19, 20, 21, 22, 23, 24, 25, 26, 31, 32, 33, 34, 35, 36, [invAb] at 3' end, other sugars and backbone not given here) [compound 22943] | 89.67
22947 (GGAGUGACUGAUGAGGCCGUUAGGCCGAAAAUGCGC; 2'-O-methyl at 1, 2, 3, 4, 5, 6, 7, 15, 16, 17, 18, 19, 20, 21, 22, 23, 24, 25, 26, 31, 32, 33, 34, 35, 36, [invAb] at 3' end, other sugars and backbone not given here) [compound 22947] | 81.88
22946 (CUCCACGCUGAUGAGGCCGUUAGGCCGAAACUCCUC; 2'-O-methyl at 1, 2, 3, 4, 5, 6, 7, 15, 16, 17, 18, 19, 20, 21, 22, 23, 24, 25, 26, 31, 32, 33, 34, 35, 36, [invAb] at 3' end, other sugars and backbone not given here) [compound 22946] | 78.06
22973 (AGGUGAAGGCTAGCTACAACGAAGCUGAGN; 3' inverted abasic cap (B); Description of Artificial Sequence: Nucleic Acid; misc_feature (30)..(30): n stands for inverted deoxyabasic derivative; misc_feature (1)..(7): 2'-O-Methyl; misc_feature (23)..(29): 2'-O-Methyl) [compound 22973] | 83.15
22775 (AAGAGGACUGAUGAGGCCGUUAGGCCGAANAUAGAG; ribozyme; 2'-O-methyl at 1, 2, 3, 4, 5, 6, 7, 15, 16, 17, 18, 19, 20, 21, 22, 23, 24, 25, 26, 31, 32, 33, 34, 35, 36, [I] at 30, [invAb] at 3' end, other sugars and backbone not given here) [compound 22775] | 87.74
22723 (ACAGGUUUGAUGGCAUGCACUAUGCGCGAACUCGU; sugars from the 5' end mmmmmmmmrrrmmmmmrmmmmmmmmmrmmmmmmmm, [invAb] at 3' end, backbone not given here) [compound 22723] | 61.58
22749 (GGAAAAGGCCGAAAGGCGAGUGAGGUCUAACAGGA; 2'-O-methyl at 1, 2, 3, 4, 5, 6, 7, 8, 9, 10, 11, 12, 13, 14, 15, 16, [amino-N] at 17, 27, [invAb] at 3' end, other sugars and backbone not given here) [compound 22749] | 90.80
22972 (UGAGAGAGGCTAGCTACAACGAGAGGAAGN; 3' inverted abasic cap (B); Description of Artificial Sequence: Nucleic Acid; misc_feature (30)..(30): "n" is an inverted deoxyabasic moiety; misc_feature (1)..(7): 2'-O-Methyl; misc_feature (23)..(29): 2'-O-Methyl) [compound 22972] | 86.38
